# According to the supplement of paper PMC8149375:
# How the values were obtained:
# Settings in all cases: treatment: drug alone; 5 days
# [1] = tested on: SN12C; test: GI50, drug alone; higher = less potent
# Description: (§1)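 Primary HTS: 8 RCC cell lines treated with 8 doses (up to 10 uM) of each library drug alone for 5 days; viability read by CellTiter-Glo and normalised to DMSO. GI50 was fitted with XLfit (4-parameter), AUC is the area under the dose-response curve, and minimum viability is the lowest fraction of DMSO viability across doses.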
# [2] = tested on: CAKI-1; test: GI50, drug alone; higher = less potent
# Description: as §1
# [3] = tested on: ACHN; test: GI50, drug alone; higher = less potent
# Description: as §1
# [4] = tested on: A498; test: GI50, drug alone; higher = less potent
# Description: as §1
# [5] = tested on: UO-31; test: GI50, drug alone; higher = less potent
# Description: as §1
# [6] = tested on: 769-P; test: GI50, drug alone; higher = less potent
# Description: as §1
# [7] = tested on: TK-10; test: GI50, drug alone; higher = less potent
# Description: as §1
# [8] = tested on: 786-O; test: GI50, drug alone; higher = less potent
# Description: as §1
# [9] = tested on: SN12C; test: minimum viability across doses, drug alone, relative to DMSO (fraction); higher = less growth inhibition
# Description: as §1
# [10] = tested on: CAKI-1; test: as above
# Description: as §1
# [11] = tested on: ACHN; test: as above
# Description: as §1
# [12] = tested on: A498; test: as above
# Description: as §1
# [13] = tested on: UO-31; test: as above
# Description: as §1
# [14] = tested on: 769-P; test: as above
# Description: as §1
# [15] = tested on: TK-10; test: as above
# Description: as §1
# [16] = tested on: 786-O; test: as above
# Description: as §1
# [17] = tested on: SN12C; test: AUC of dose-response viability curve, drug alone (arbitrary (AUC of normalised viability)); higher = less growth inhibition
# Description: as §1
# [18] = tested on: CAKI-1; test: as above
# Description: as §1
# [19] = tested on: ACHN; test: as above
# Description: as §1
# [20] = tested on: A498; test: as above
# Description: as §1
# [21] = tested on: UO-31; test: as above
# Description: as §1
# [22] = tested on: 769-P; test: as above
# Description: as §1
# [23] = tested on: TK-10; test: as above
# Description: as §1
# [24] = tested on: 786-O; test: as above
# Description: as §1
SMILES,"GI50, drug alone [1] [µM]","GI50, drug alone [2] [µM]","GI50, drug alone [3] [µM]","GI50, drug alone [4] [µM]","GI50, drug alone [5] [µM]","GI50, drug alone [6] [µM]","GI50, drug alone [7] [µM]","GI50, drug alone [8] [µM]",minimum viability across doses [9],minimum viability across doses [10],minimum viability across doses [11],minimum viability across doses [12],minimum viability across doses [13],minimum viability across doses [14],minimum viability across doses [15],minimum viability across doses [16],AUC of dose-response viability curve [17],AUC of dose-response viability curve [18],AUC of dose-response viability curve [19],AUC of dose-response viability curve [20],AUC of dose-response viability curve [21],AUC of dose-response viability curve [22],AUC of dose-response viability curve [23],AUC of dose-response viability curve [24]
Cc1cc(CN2CCN(c3c(Br)cnc4[nH]c(-c5ccc(N6CCN(C)CC6)cc5)nc34)CC2)no1,2.42,0.885,0.732,3.35,8.57,0.858,2.84,0.451,0.0135,0.00778,0.00704,0.0157,0.0211,0.0185,0.177,0.00301,2.74,2.6,2.36,3.57,4.13,2.44,2.61,2.01
CC(C)(C)c1nc(-c2cccc(NS(=O)(=O)c3c(F)cccc3F)c2F)c(-c2ccnc(N)n2)s1,> 10,0.567,0.381,> 10,> 10,> 10,5.14,3.87,0.942,0.163,0.115,0.91,0.75,0.842,0.447,0.463,3.69,2.67,2.19,4.27,4.68,3.52,2.54,2.47
O=C(NOCC1CC1)c1ccc(F)c(F)c1Nc1ccc(I)cc1Cl,> 10,4.19,3.51,> 10,> 10,5.01,4.99,4.38,0.467,0.23,0.263,0.593,0.779,0.233,0.362,0.41,2.86,3.04,2.78,3.44,4.14,2.96,2.68,2.98
Nc1nc(NCCNc2ncc(-n3ccnc3)c(-c3ccc(Cl)cc3Cl)n2)ccc1[N+](=O)[O-],9.82,7.77,3.93,> 10,1.65,2.72,1.92,1.24,0.455,0.211,0.0311,0.701,0.0119,0.0343,0.0728,0.013,3.5,3.69,3.06,4.54,3.59,2.89,2.43,2.36
C#Cc1cccc(Nc2ncnc3cc(OCCOC)c(OCCO)cc23)c1,> 10,2.84,0.472,> 10,> 10,3.48,2.61,> 10,0.645,0.159,0.097,0.994,1.05,0.396,0.402,0.531,3.24,2.93,2.13,4.38,4.22,2.71,2.39,2.98
